Data taken from ChEMBL document CHEMBL4052788, “Pocket detection and interaction-weighted ligand-similarity search yields novel high-affinity binders for Myocilin-OLF, a protein implicated in glaucoma” (Bioorg Med Chem Lett, 2017).

Columns and labels:
Myocilin [1] = target: T1, Myocilin (Homo sapiens, UniProt Q99972); experiment: Binding affinity myocilin-OLF domain (unknown origin) by SRP assay
T1 sequence (Q99972 whole entry): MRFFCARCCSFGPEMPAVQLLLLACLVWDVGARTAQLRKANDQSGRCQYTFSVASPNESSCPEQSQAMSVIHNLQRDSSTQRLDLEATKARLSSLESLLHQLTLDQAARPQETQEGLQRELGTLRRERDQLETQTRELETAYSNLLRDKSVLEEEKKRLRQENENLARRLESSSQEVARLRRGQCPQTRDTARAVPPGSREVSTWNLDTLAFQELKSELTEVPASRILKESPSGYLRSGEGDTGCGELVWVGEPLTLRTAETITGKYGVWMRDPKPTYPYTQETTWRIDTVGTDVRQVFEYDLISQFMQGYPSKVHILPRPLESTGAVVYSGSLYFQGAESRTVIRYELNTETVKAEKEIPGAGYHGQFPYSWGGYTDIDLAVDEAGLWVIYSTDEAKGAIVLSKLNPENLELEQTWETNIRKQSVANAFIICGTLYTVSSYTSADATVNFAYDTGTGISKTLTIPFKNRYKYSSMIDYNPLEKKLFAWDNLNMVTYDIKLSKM

Myocilin (Homo sapiens) [2] = target: T2, Myocilin (Homo sapiens) (UniProt Q99972); experiment: Binding affinity myocilin-OLF domain (unknown origin) assessed as change in melting temperature by SRP assay
T2 sequence (whole entry): T1 sequence (Q99972 whole entry)

Myocilin [3] = target: T1, Myocilin; experiment: Binding affinity myocilin-OLF domain (unknown origin) by Sypro Orange dye-based DSF assay; conditions: read-out: Kd(app)
Myocilin (Homo sapiens) [4] = target: T2, Myocilin (Homo sapiens); experiment: Binding affinity myocilin-OLF domain (unknown origin) assessed as change in melting temperature by Sypro Orange dye-based DSF assay

| Compound | Kd (Myocilin [1]) | ΔTm (Myocilin (Homo sapiens) [2]) | Kd (Myocilin [3]) | ΔTm (Myocilin (Homo sapiens) [4]) |
| --- | --- | --- | --- | --- |
| O=C1Nc2ccc(I)cc2C1=Cc1cc(Br)c(O)c(Br)c1 [GW305074X] | 33.5 µM | 0.2 °C | – | – |
| O=c1cc(-c2ccc(O)cc2)oc2cc(O)cc(O)c12 [APIGENIN] | 41.6 µM | -0.3 °C | – | – |
| O=C(Cn1ccc(=O)[nH]c1=O)Nc1ccc(C(=O)O)c(O)c1 | – | – | 200 µM | 1.96 °C |
| Cc1cc(N(CCCl)CCCl)ccc1/C=N/NC(=O)Cc1cc(=O)oc2cc(O)ccc12 | – | – | 210 µM | 1.6 °C |
| COc1cccc(NC(S)=Nc2ccc(O)cc2)c1 | – | – | – | 32 °C |
| O=C(Nc1ccc(Oc2ccc(NC(=O)Nc3ccc([N+](=O)[O-])cc3)cc2)cc1)Nc1ccc([N+](=O)[O-])cc1 | – | – | 0.65 µM | 11.2 °C |
| COc1cc(C(=O)C(=O)c2ccc(O)c(OC)c2)ccc1O | – | – | 300 µM | 0.91 °C |

Now from value to compound:

| Kd (Myocilin [1]) | ΔTm (Myocilin (Homo sapiens) [2]) | Kd (Myocilin [3]) | ΔTm (Myocilin (Homo sapiens) [4]) | Compound |
| --- | --- | --- | --- | --- |
| – | – | 11 µM | 6.3 °C | Cc1ccc(C(C)C)cc1NC(=O)Nc1ccc([N+](=O)[O-])cc1 |
| – | – | 0.099 µM | 16.4 °C | O=C(/C=C/c1ccc(O)c(O)c1)c1ccccc1O |
| – | – | 170 µM | 2.02 °C | O=C1c2ccccc2C(=O)C1C(c1ccc([N+](=O)[O-])cc1)C1C(=O)c2ccccc2C1=O |
| – | – | 220 µM | 1.5 °C | CN(C)c1ccc(/C=C/C(=O)c2cc(Cl)ccc2O)cc1 |
| – | – | 190 µM | 1.78 °C | Nc1nc(N)c(/N=N/c2ccc(C(=O)O)cc2)c(N)n1 |
